Data reported in patent US5223485A, “Anaphylatoxin-receptor ligands” (Abbott Laboratories, priority 1991, dated 1993).
Bridge positions count the residues as written; N and C are the ends. Square brackets hold non-standard residues; d marks the D form. Peptide text beside a SMILES is read from it. * marks the point of attachment. NMe2Phe = CN(C)[C@@H](Cc1ccccc1)C(=O)*; hCha = N[C@@H](CCC1CCCCC1)C(=O)O; Cha = N[C@@H](CC1CCCCC1)C(=O)O; dPen = CC(C)(S)[C@@H](N)C(=O)O; NMeA = CN[C@@H](C)C(=O)O; dNMeA = CN[C@H](C)C(=O)O; Bz = O=C(c1ccccc1)*

Molecular target: T1, C5a Receptor (Homo sapiens, UniProt P21730)
T1 construct: 2.5-25 μg/mL of purified PMNL membrane fragments; from tissue; host or cells: polymorphonuclear leukocyte (PMNL) membrane fragments
T1 sequence (P21730 1-350): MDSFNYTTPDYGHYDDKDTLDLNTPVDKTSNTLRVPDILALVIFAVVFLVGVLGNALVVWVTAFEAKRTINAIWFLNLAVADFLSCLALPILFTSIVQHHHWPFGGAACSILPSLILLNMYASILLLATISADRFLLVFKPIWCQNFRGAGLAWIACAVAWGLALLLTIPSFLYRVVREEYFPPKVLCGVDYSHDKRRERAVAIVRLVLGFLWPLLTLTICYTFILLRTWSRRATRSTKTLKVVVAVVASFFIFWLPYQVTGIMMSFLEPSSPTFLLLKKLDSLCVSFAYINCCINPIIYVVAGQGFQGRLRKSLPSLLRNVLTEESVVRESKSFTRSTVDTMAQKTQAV
Test: Anaphylatoxin receptor binding Ki determination: inhibition of 125I-C5a binding to PMNL membrane fragments
Conditions: 0.03-1 nM 125I-C5a, 2.5-25 μg/mL purified PMNL membrane fragments, filtration; read-out: In vitro C5a Receptor Binding Potency Ki
Experimental: Specific inhibition of C5a binding activity of representative compounds of the present invention was measured using 0.03-1 nM ^125 I-C5a with 2.5-25 μg/mL of purified PMNL membrane fragments (Borregaard, N.; Heiple, J. M.; Simons, E. R.; and Clark, R. A. J. Cell. Biol. 1983, 97, 52-61.). Free and membrane-bound ligand were separated by filtration.

| SMILES | Ki [nM] |
| --- | --- |
| C[C@H](NC(=O)[C@H](CCCCN)NC(=O)[C@@H](N)Cc1ccccc1)C(=O)N[C@@H](CC1CCCCC1)C(=O)NCC(=O)N[C@H](Cc1c[nH]c2ccccc12)C(=O)N[C@H](C)C(=O)N[C@@H](CCCNC(=N)N)C(=O)O [Example 249, H-Phenylalanyl-Lysyl-Alanyl-{(2S)-2-Amino-3-cyclohexylpropanoyl}-Glycyl-DTryptophyl-DAlanyl-Arginyl-OH] (H-FKA[Cha]G[dW][dA]R-OH) | 110 |
| CC(C)C[C@H](NC(=O)[C@H](C)NC(=O)[C@H](CCC1CCCCC1)NC(=O)[C@H](C)NC(=O)[C@H](CCCCN)NC(=O)[C@@H](N)Cc1ccccc1)C(=O)N[C@H](C)C(=O)N[C@@H](CCCNC(=N)N)C(=O)O [Example 106, H-Phenylalanyl-Lysyl-Alanyl-{(2S)-2-Amino-4-cyclohexylbutanoyl}-Alanyl-Leucyl-DAlanyl-Arginyl-OH] (H-FKA[hCha]AL[dA]R-OH) | 42 |
| CC(C)C[C@H](NC(=O)[C@H](CC1CCCCC1)NC(=O)[C@H](CC1CCCCC1)NC(=O)[C@H](C)NC(=O)[C@H](CCCCN)NC(=O)[C@@H](N)Cc1ccccc1)C(=O)N(C)[C@H](C)C(=O)N[C@@H](CCCNC(=N)N)C(=O)O [Example 229, H-Phenylalanyl-Lysyl-Alanyl-{(2S)-2-Amino-3-cyclohexylpropanoyl}-{(2S)-2-Amino-3-cyclohexylpropanoyl}-Leucyl-(N-Methyl)DAlanyl-Arginyl-OH] (H-FKA[Cha][Cha]L[dNMeA]R-OH) | 33 |
| CC(C)C[C@H](NC(=O)[C@H](CC1CCCCC1)NC(=O)[C@H](CC1CCCCC1)NC(=O)[C@H](C)NC(=O)[C@H](CCCCN)NC(=O)[C@@H](N)Cc1ccccc1)C(=O)N[C@H](C)C(=O)N[C@@H](CCCNC(=N)N)C(=O)O [Example 2, H-Phenylalanyl-Lysyl-Alanyl-{(2S)-2-Amino-3-cyclohexylpropanoyl}-{(2S)-2-Amino-3-cyclohexylpropanoyl}-Leucyl-DAlanyl-Arginyl-OH] (H-FKA[Cha][Cha]L[dA]R-OH) | 98 |
| CC(=O)N[C@@H](Cc1c[nH]cn1)C(=O)N[C@@H](CCCCN)C(=O)N[C@@H](CC(=O)O)C(=O)N[C@@H](CC1CCCCC1)C(=O)N[C@@H](Cc1c[nH]cn1)C(=O)N[C@@H](CC(C)C)C(=O)N[C@H](C)C(=O)N[C@@H](CCCNC(=N)N)C(=O)O [Example 23, Ac-Histidyl-Lysyl-Aspartyl-{(2S)-2-Amino-3-cyclohexylpropanoyl}-Histidyl-Leucyl-DAlanyl-Arginyl-OH] (Ac-HKD[Cha]HL[dA]R-OH) | 2400 |
| CC(C)C[C@H](NC(=O)[C@H](CC1CCCCC1)NC(=O)[C@H](CC1CCCCC1)NC(=O)[C@H](C)NC(=O)[C@H](CCCCN)NC(=O)[C@@H](N)Cc1ccccc1)C(=O)N[C@@H](C)C(=O)N[C@@H](CCCNC(=N)N)C(=O)O [Example 188, H-Phenylalanyl-Lysyl-Alanyl-{(2S)-2-Amino-3-cyclohexylpropanoyl}-{(2S)-2-Amino-3-cyclohexylpropanoyl}-Leucyl-Alanyl-Arginyl-OH] (H-FKA[Cha][Cha]LAR-OH) | 210 |
| CC(C)C[C@H](NC(=O)CNC(=O)[C@H](CC1CCCCC1)NC(=O)[C@H](C)N(C)C(=O)[C@H](CCCCN)NC(=O)[C@H](Cc1ccccc1)N(C)C)C(=O)N(C)[C@H](C)C(=O)N[C@@H](CCCNC(=N)N)C(=O)O [Example 455, (N,N-di-Methyl)Phenylalanyl-Lysyl-(N-Methyl)Alanyl-{(2S)-2-Amino-3-cyclohexylpropanoyl}-Glycyl-Leucyl-(N-Methyl)DAlanyl-Arginyl-OH] (NMe2Phe-K[NMeA][Cha]GL[dNMeA]R-OH) | 17 |
| CC(C)C[C@@H]1NC(=O)[C@H](CC2CCCCC2)NC(=O)[C@H](CC2CCCCC2)NC(=O)[C@H](C)NC(=O)[C@H](CCCCN)NC(=O)[C@H](NC(=O)c2ccccc2)C(C)(C)SSC[C@H](C(=O)N[C@@H](CCCNC(=N)N)C(=O)O)NC1=O [Example 279, Benzoyl-DPenicillaminyl*-Lysyl-Alanyl-{(2S)-2-Amino-3-cyclohexylpropanoyl)-{(2S)-2-Amino-3-cyclohexylpropanoyl}-Leucyl-DCysteinyl*-Arginyl-OH] (Bz-[dPen]KA[Cha][Cha]L[dC]R-OH; disulfide 1-7) | 4000 |
